From ChEMBL document CHEMBL1201862, “PubChem BioAssay data set” (2004) come the findings set out here.

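Cells were grown in 96-well plates and exposed to each compound for 48 hours at five concentrations; endpoints were interpolated linearly between bracketing concentrations, or set to the highest concentration if not reached. GI50 = concentration required for 50% inhibition of growth.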 Activity calls are given as the source filed them. No stated cut-off is given here; in the data, active = GI50 up to about 1.1 µM and inactive = higher.

Some test systems named below: BT-549; HCT-116; HCT-15; HOP-62; HOP-92; IGROV-1; M14; MCF7; MDA-MB-231; NCI/ADR-RES; OVCAR-4; OVCAR-8; RPMI-8226; SF-268; SK-MEL-28; SN12C; SR; T47D; UACC-257; UO-31.
Assay in all cases: inhibition of tumour cell growth, NCI panel, 48 h

As for `O=C(O)c1ccc(C(=O)c2ccccc2)c(C(=O)O)c1`, the GI50 is > 100 µM (inactive) with BT-549; > 100 µM (inactive) in the experiment on HCT-116; above 100 µM with HCT-15; > 100 µM (inactive) in the experiment with HOP-62; > 100 µM (inactive) with HOP-92; > 100 µM (inactive) with IGROV-1. Further, the GI50 in the experiment on M14, with MCF7, in the experiment on MDA-MB-231, with NCI/ADR-RES, with OVCAR-4 and with OVCAR-8 was > 100 µM (inactive) each time. In addition, the GI50 in the experiment on RPMI-8226, in the experiment on SF-268, in the experiment on SK-MEL-28, with SN12C, in the experiment with SR and in the experiment with T47D was > 100 µM (inactive) each time. Also, the GI50 with UACC-257 and in the experiment on UO-31 was > 100 µM (inactive) throughout.

Regarding `CCOC1OC(C)(C=C(C#N)C#N)CCC1C` (stereo not given), the GI50 in the experiment on BT-549 is 21.4 µM (inactive); in the experiment with HCT-116 it was 29.9 µM (inactive); with HCT-15, 25.5 µM; in the experiment with HOP-62 it was 22.9 µM (inactive); with HOP-92, 48.5 µM (inactive); with IGROV-1, 10.5 µM (inactive). Besides, the GI50 in the experiment on M14 was 35.5 µM (inactive); in the experiment with MCF7, 35.2 µM (inactive); in the experiment with MDA-MB-231 it was 88.1 µM (inactive); in the experiment with NCI/ADR-RES, 35.2 µM (inactive); with OVCAR-4, 49.3 µM (inactive); in the experiment on OVCAR-8, 27.7 µM (inactive). For the same compound, the GI50 with RPMI-8226 was 21 µM (inactive); in the experiment with SF-268, 43.2 µM (inactive); with SK-MEL-28, 47.2 µM (inactive); in the experiment on SN12C it was 33.7 µM (inactive); with SR, 22.1 µM (inactive); in the experiment on T47D it was 44.2 µM (inactive). The GI50 with UACC-257 is > 71.6 µM (inactive); in the experiment with UO-31, 33.8 µM (inactive).

As to `O=C1C([P+](c2ccccc2)(c2ccccc2)c2ccccc2)=C([O-])C(=Cc2ccc(Cl)c(Cl)c2)C([O-])=C1[P+](c1ccccc1)(c1ccccc1)c1ccccc1`, the GI50 in the experiment on BT-549 is 2.27 µM (inactive); in the experiment with HCT-116, 1.68 µM (inactive); in the experiment with HCT-15, 4.79 µM; with HOP-62 it was 3.54 µM (inactive); in the experiment with HOP-92, 2.34 µM (inactive); in the experiment on IGROV-1, 2.62 µM (inactive). Further, the GI50 was 2.38 µM (inactive) in the experiment on M14; 1.46 µM (inactive) with MCF7; 2.96 µM (inactive) in the experiment with MDA-MB-231; 8.71 µM (inactive) in the experiment on NCI/ADR-RES; 2.97 µM (inactive) with OVCAR-4; 2.23 µM (inactive) in the experiment with OVCAR-8. Moreover, the GI50 with RPMI-8226 was 1.22 µM (inactive); in the experiment with SF-268 it was 1.72 µM (inactive); with SK-MEL-28 it was 2.49 µM (inactive); in the experiment on SN12C, 2.43 µM (inactive); in the experiment with SR, 0.925 µM (active); with T47D, 3.37 µM (inactive). The GI50 was 2.43 µM (inactive) with UACC-257 and 3.75 µM (inactive) with UO-31.

For `NC(=O)C1=NNc2ccccc2C(=O)N1c1ccccc1`, the GI50 was > 100 µM (inactive) in the experiment with BT-549; > 100 µM (inactive) in the experiment on HCT-116; above 100 µM in the experiment on HCT-15; > 100 µM (inactive) with HOP-62; > 10 µM (inactive) in the experiment with HOP-92; > 100 µM (inactive) in the experiment on IGROV-1. Besides, the GI50 in the experiment on M14, in the experiment with MCF7, with MDA-MB-231, in the experiment with NCI/ADR-RES, in the experiment with OVCAR-4 and in the experiment with OVCAR-8 was > 100 µM (inactive) throughout. In addition, the GI50 in the experiment on RPMI-8226, with SF-268, in the experiment on SK-MEL-28, in the experiment on SN12C, in the experiment on SR and in the experiment on T47D was > 100 µM (inactive) in each case. The GI50 with UACC-257 and in the experiment on UO-31 was > 100 µM (inactive) in each case.

As to `CNc1ccc([S+]([O-])Nc2ccc(OC)cc2)cc1` (stereo not given), the GI50 in the experiment on BT-549 is 2.06 µM (inactive); with HCT-116, 66.8 µM (inactive); in the experiment with HCT-15, above 100 µM; with HOP-62 it was > 100 µM (inactive); in the experiment on HOP-92, > 100 µM (inactive); with IGROV-1, 11.4 µM (inactive). The GI50 in the experiment on M14 was > 100 µM (inactive); with MCF7, 79.6 µM (inactive); in the experiment on MDA-MB-231 it was 17.1 µM (inactive); with NCI/ADR-RES it was 27.9 µM (inactive); with OVCAR-4, > 100 µM (inactive); with OVCAR-8 it was 86.3 µM (inactive). The GI50 in the experiment on RPMI-8226 is > 100 µM (inactive); with SF-268 it was > 100 µM (inactive); with SK-MEL-28, 93.3 µM (inactive); with SN12C it was > 100 µM (inactive); in the experiment on SR, > 100 µM (inactive); with T47D, 31.8 µM (inactive). In addition, the GI50 is > 100 µM (inactive) in the experiment on UACC-257 and 7 µM (inactive) in the experiment with UO-31.

With `Cc1ccc(-c2nc(N/N=C/C=C/c3ccccc3)c3ccccc3n2)cc1`, the GI50 in the experiment with BT-549 is 23.1 µM (inactive); in the experiment with HCT-116 it was 26.6 µM (inactive); with HCT-15, 48.4 µM; in the experiment on HOP-62, 64.4 µM (inactive); in the experiment with HOP-92 it was 31.3 µM (inactive); with IGROV-1, 19.2 µM (inactive). In addition, the GI50 in the experiment with M14 is 29.4 µM (inactive); in the experiment on MCF7, 14 µM (inactive); in the experiment with MDA-MB-231, 16.6 µM (inactive); in the experiment with NCI/ADR-RES it was 72.9 µM (inactive); in the experiment with OVCAR-4, 50.5 µM (inactive); in the experiment with OVCAR-8 it was 44.2 µM (inactive). Also, the GI50 in the experiment with RPMI-8226 is > 100 µM (inactive); in the experiment with SF-268 it was 33.5 µM (inactive); in the experiment on SK-MEL-28, 34.2 µM (inactive); with SN12C it was 24.8 µM (inactive); in the experiment on SR it was > 100 µM (inactive); in the experiment on T47D, 60.5 µM (inactive). Besides, the GI50 in the experiment on UACC-257 was 34 µM (inactive); in the experiment on UO-31, 83.6 µM (inactive).

As for `CO/N=C(\C(=O)Nc1cncs1)c1csc(N)n1`, the GI50 was > 10 µM (inactive) in the experiment with BT-549; > 10 µM (inactive) with HCT-116; above 10 µM in the experiment with HCT-15; > 10 µM (inactive) in the experiment with HOP-62; > 10 µM (inactive) in the experiment on HOP-92; > 10 µM (inactive) with IGROV-1. For the same compound, the GI50 with M14, in the experiment on MCF7, in the experiment on MDA-MB-231, with NCI/ADR-RES, with OVCAR-4 and with OVCAR-8 was > 10 µM (inactive) in each case. Moreover, the GI50 is 6.27 µM (inactive) with RPMI-8226; > 10 µM (inactive) with SF-268; > 10 µM (inactive) in the experiment with SK-MEL-28; > 10 µM (inactive) in the experiment with SN12C; > 10 µM (inactive) with SR; > 10 µM (inactive) with T47D. In addition, the GI50 in the experiment on UACC-257 and with UO-31 was > 10 µM (inactive) throughout.

Turning to `C/C(=N\NC(=S)Nc1ccc([N+](=O)[O-])cc1)c1nc2cccnc2[nH]1`, the GI50 in the experiment on BT-549 is 0.452 µM (active); in the experiment on HCT-116, 0.515 µM (active); with HCT-15 it was 0.617 µM; in the experiment with HOP-62, 1.07 µM (active); with HOP-92 it was 1.51 µM (inactive); in the experiment on IGROV-1, 0.942 µM (active). Moreover, the GI50 in the experiment with M14 was 1.26 µM (inactive); in the experiment on MCF7, 0.611 µM (active); in the experiment with MDA-MB-231 it was 1.31 µM (inactive); in the experiment with NCI/ADR-RES it was 1.13 µM (inactive); in the experiment with OVCAR-4, 0.583 µM (active); in the experiment with OVCAR-8 it was 0.348 µM (active). The GI50 in the experiment on RPMI-8226 was 1.87 µM (inactive); in the experiment on SF-268 it was 0.278 µM (active); with SK-MEL-28 it was 0.698 µM (active); in the experiment on SN12C, 1.65 µM (inactive); in the experiment on SR, 0.388 µM (active); in the experiment with T47D it was 0.693 µM (active). In addition, the GI50 in the experiment on UACC-257 was 0.565 µM (active); in the experiment with UO-31, 0.322 µM (active).

With `CCC1(OC(=O)CN2CCN(CCO)CC2)C(=O)OCc2c1cc1n(c2=O)Cc2cc3ccccc3nc2-1` (stereo not given), the GI50 with BT-549 is 0.736 µM (active); in the experiment on HCT-116, 0.417 µM (active); in the experiment on HCT-15, 1.49 µM; with HOP-62, 0.0867 µM (active); with HOP-92, 1.26 µM (inactive); in the experiment on IGROV-1, 0.778 µM (active). In addition, the GI50 in the experiment with M14 was 0.265 µM (active); in the experiment on MCF7, 0.107 µM (active); in the experiment on MDA-MB-231 it was 14.1 µM (inactive); in the experiment with NCI/ADR-RES it was 0.11 µM (active); in the experiment on OVCAR-4, 1.77 µM (inactive); with OVCAR-8 it was 0.522 µM (active). The GI50 in the experiment on RPMI-8226 is 0.962 µM (active); in the experiment with SF-268, 0.138 µM (active); with SK-MEL-28 it was 3.33 µM (inactive); with SN12C it was 0.125 µM (active); with SR, 0.0221 µM (active); in the experiment on T47D, 0.212 µM (active). For the same compound, the figures for the GI50 in the experiment with UACC-257 and in the experiment with UO-31 were 0.771 µM (active) and 0.169 µM (active), respectively.

For `CC(C)=C[C@@H]1O[C@H](O)[C@@H]([C@H]2CC[C@@]3(C)[C@@H]4CC[C@H]5C(C)(C)C(=O)CC[C@@]56C[C@@]46CC[C@]23C)[C@@H]1O`, the GI50 in the experiment with BT-549 is 20.1 µM (inactive); in the experiment with HCT-116, 15.2 µM (inactive); in the experiment with HCT-15 it was 16.9 µM; in the experiment on HOP-62, 23.7 µM (inactive); with HOP-92, 16.6 µM (inactive); in the experiment with IGROV-1, 19.5 µM (inactive). Besides, the GI50 in the experiment on M14 is 21 µM (inactive); in the experiment on MCF7, 4.14 µM (inactive); in the experiment with MDA-MB-231, 19.5 µM (inactive); in the experiment with NCI/ADR-RES, 16.7 µM (inactive); with OVCAR-4, 18.1 µM (inactive); in the experiment with OVCAR-8 it was 15.4 µM (inactive). In addition, the GI50 was 3.14 µM (inactive) in the experiment on RPMI-8226; 17.6 µM (inactive) in the experiment with SF-268; 22.8 µM (inactive) in the experiment on SK-MEL-28; 19.3 µM (inactive) with SN12C; 9.64 µM (inactive) in the experiment with SR; 14.6 µM (inactive) with T47D. Besides, the GI50 is 16.7 µM (inactive) with UACC-257 and 15.3 µM (inactive) with UO-31.
